From patent publication US20240368122A1, “JAK2 INHIBITORS AND METHODS OF USE THEREOF” (RELAY THERAPEUTICS, INC., priority 2021, published 2024)
Read-outs that look alike come from different tables or passages of the source.

Columns and labels:
[1] = test system: TF1 JAK2 V617F STAT3 reporter; test: Cellular TF1 STAT3 assay (luciferase reporter), JAK2 V617F; type: cell-based; conditions: read-out: Cell PD-TF1 JAK2 V617F STAT3 (IC50)
Outline: (§1)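 TF1 erythroleukemia cells expressing V617F JAK2 with a STAT3 or STAT5 luciferase reporter were seeded at 10,000 cells/well onto compound (10-point, 1:3 dilutions; 10 mM top stock at 1000×) and incubated 18-20 h at 37 °C, 5% CO2. Luminescence was read after ONE-glo addition, 10 min at room temperature.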

[2] = biological target: T1, JAK2 JH2 WT (V536-D812) [W659A, W777A, F794H solubilizing mutations] (Homo sapiens, UniProt O60674, F794H/W659A/W777A); test: Surface Plasmon Resonance (SPR) binding assay, JAK2 JH2 domain
T1 construct: **JAK2 JH2 WT (V536-D812) [W659A, W777A, F794H solubilizing mutations]; C-thrombin-avi-His6; thrombin cleavage site (C); His6 (C); purchased Biortus
T1 sequence (O60674 536-812 W659A/W777A/F794H): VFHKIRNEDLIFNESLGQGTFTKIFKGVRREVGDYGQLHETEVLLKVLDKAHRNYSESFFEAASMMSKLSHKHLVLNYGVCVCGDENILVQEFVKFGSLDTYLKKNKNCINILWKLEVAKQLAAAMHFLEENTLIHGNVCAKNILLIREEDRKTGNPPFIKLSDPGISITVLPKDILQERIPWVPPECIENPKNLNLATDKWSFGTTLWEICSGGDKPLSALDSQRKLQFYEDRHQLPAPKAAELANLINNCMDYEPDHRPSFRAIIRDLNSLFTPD
Outline: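 Kinetics came from 1:1 fits of single-cycle runs at 20 °C: four 3-fold dilutions from 5 uM for JH1 or 500 nM for JH2, 60 s association, and 300 s or 1200 s dissociation respectively. Protein was freshly captured per compound in the presence of 10 uM stabilizer compound, with running buffer of pH 7.5 HEPES/NaCl/glycerol/DTT plus 2% DMSO.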

[3] = test system: TF1 JAK2 V617F STAT5 reporter; test: Cellular TF1 STAT5 assay (luciferase reporter), JAK2 V617F; type: cell-based; conditions: read-out: Cell PD TF1 V617F STAT5 (IC50)
Outline: as §1

[4] = Homo sapiens, TF-1, TF1 cells, JAK2 V617F

| IC50 ([1]; TF1 JAK2 V617F) [nM] | Kd ([2]; SPR, JAK2 JH2 domain) [nM] | IC50 ([3]; TF1 JAK2 V617F) [nM] | IC50 [1, 4] [nM] | Kd [2] [nM] | IC50 [3, 4] [nM] | Compound |
| --- | --- | --- | --- | --- | --- | --- |
| 5000 to 100000 | 10 to 50 | 5000 to 100000 |  |  |  | CNC(=O)c1nnc(NC(=O)C2CC2)cc1Nc1cccc(-c2ccc(C(=O)N(C)C[C@@H]3CCCO3)nc2)c1OC (single isomer, unassigned) [Compound 140] |
| 50 to 500 | 0.01 to 10 | 50 to 500 |  |  |  | CNC(=O)c1nnc(NC(=O)C2CC2)cc1Nc1cccc(-c2cnn(C3CN(Cc4cc(C)ccn4)C3)c2)c1OC [Compound 111] |
| 500 to 5000 | 0.01 to 10 | 500 to 5000 |  |  |  | CNC(=O)c1nnc(NC(=O)C2CC2)cc1Nc1cccc(-c2cn(C3CN(Cc4ccccn4)C3)nc2C)c1OC [Compound 184] |
| 500 to 5000 | 0.01 to 10 | 500 to 5000 |  |  |  | CNC(=O)c1nnc(NC(=O)C2CC2)cc1Nc1cccc(-c2cnc(C(=O)N(C)Cc3ccn(C)n3)nc2)c1OC [Compound 49] |
|  |  |  | 50 to 500 | 0.01 to 10 | 500 to 5000 | CNC(=O)c1nnc(NC(=O)C2CC2)cc1Nc1nccc(-c2ccc(C(=O)N(C)Cc3cc(C#N)ccn3)nc2)c1OC [Compound 240] |
|  |  |  | 5000 to 100000 | 50 to 500 | 5000 to 100000 | CNC(=O)c1nnc(NC(=O)C2CC2)cc1Nc1cccc(-c2cn(C3CN(Cc4cccc(C#N)n4)C3)nc2C(C)(C)O)c1OC [Compound 339] |
| 50 to 500 | 0.01 to 10 | 50 to 500 |  |  |  | CNC(=O)c1nnc(NC(=O)C2CC2)cc1Nc1cccc(-c2cnn(C3CN(Cc4csnn4)C3)c2)c1OC [Compound 173] |
|  |  |  | 50 to 500 | 0.01 to 10 | 50 to 500 | CNC(=O)c1nnc(NC(=O)C2CC2)cc1Nc1ccc(C)c(-c2ccc(C(=O)N(C)Cc3cc(C(F)F)ccn3)nc2)c1OC [Compound 296] |
|  |  |  | 50 to 500 | 0.01 to 10 | 10 to 50 | CCN(C)C(=O)c1cccc(CN2CC(n3cc(-c4cccc(Nc5cc(NC(=O)C6CC6)nnc5C(=O)NC)c4OC)cn3)C2)n1 [Compound 354] |
| 500 to 5000 | 0.01 to 10 | 500 to 5000 |  |  |  | CNC(=O)c1nnc(NC(=O)C2CC2)cc1Nc1cccc(-c2ccc(C(=O)N(C)Cc3cn(C)nn3)nc2)c1OC [Compound 100] |
| 500 to 5000 | 0.01 to 10 | 500 to 5000 |  |  |  | CNC(=O)c1nnc(NC(=O)C2CC2)cc1Nc1cccc(-c2cnn(C3CN(Cc4cc(F)ccc4F)C3)c2)c1OC [Compound 128] |
|  |  |  | 500 to 5000 | 0.01 to 10 | 500 to 5000 | CNC(=O)c1nnc(NC(=O)C2CC2)cc1Nc1cccc(-c2cnn(C3CN(Cc4cccc(C(=O)N(C)CCN)n4)C3)c2)c1OC [Compound 384] |
| 500 to 5000 | 0.01 to 10 | 500 to 5000 |  |  |  | CNC(=O)c1nnc(NC(=O)C2CC2)cc1Nc1cccc(-c2ccc(C(=O)N(C)Cc3cc(Cl)ccc3OC)nc2)c1OC [Compound 82] |
| 500 to 5000 | 0.01 to 10 | 500 to 5000 |  |  |  | CNC(=O)c1nnc(NC(=O)C2CC2)cc1Nc1cccc(-c2cnc(C(=O)N(CCOC)Cc3cccn(C)c3=O)c(F)c2)c1OC [Compound 21] |
|  |  |  | 10 to 50 | 0.01 to 10 | 10 to 50 | CCS(=O)(=O)c1ccnc(CN(C)C(=O)c2ccc(-c3cccc(Nc4cc(NC(=O)C5CC5)nnc4C(=O)NC)c3OC)cn2)c1 [Compound 394] |
|  |  |  | 500 to 5000 | 0.01 to 10 | 500 to 5000 | CNC(=O)c1nnc(NC(=O)C2CC2)cc1Nc1cccc(-c2ccn(C3CN(Cc4cccc(C(F)F)n4)C3)n2)c1OC [Compound 331] |
|  |  |  | 50 to 500 | 0.01 to 10 | 50 to 500 | COc1c(Nc2cc(NC(=O)C3CC3)nnc2-c2ncc[nH]2)cccc1-c1ccc(C(=O)N(C)Cc2cc(C#N)ccn2)nc1 [Compound 366] |
|  |  |  | 50 to 500 | 0.01 to 10 | 50 to 500 | CNC(=O)c1nnc(NC(=O)C2CC2)cc1Nc1cccc(-c2cnn(C3CN(Cc4cccc(S(C)(=O)=O)n4)C3)c2)c1OC [Compound 304] |

| IC50 ([1]; TF1 JAK2 V617F) [nM] | Kd ([2]; SPR, JAK2 JH2 domain) [nM] | IC50 ([3]; TF1 JAK2 V617F) [nM] | IC50 [1, 4] [nM] | Kd [2] [nM] | IC50 [3, 4] [nM] | Compound |
| --- | --- | --- | --- | --- | --- | --- |
| 500 to 5000 | 0.01 to 10 | 500 to 5000 |  |  |  | CNC(=O)c1nnc(NC(=O)C2CC2)cc1Nc1cccc(-c2cnn(C3CN(Cc4ncccn4)C3)c2)c1OC [Compound 70] |
| 500 to 5000 | 0.01 to 10 | 500 to 5000 |  |  |  | CNC(=O)c1nnc(NC(=O)C2CC2)cc1Nc1cccc(-c2ccc(C(=O)N(C)[C@H](C)c3ccn(C)n3)nc2)c1OC (single isomer, unassigned) [Compound 161] |
| 50 to 500 | 0.01 to 10 | 50 to 500 |  |  |  | CNC(=O)c1nnc(NC(=O)C2CC2)cc1Nc1cccc(-c2ccc(C(=O)N(C)Cc3cn(C)nc3C)nc2)c1OC [Compound 101] |
| 500 to 5000 | 10 to 50 | 500 to 5000 |  |  |  | CNC(=O)c1nnc(NC(=O)C2CC2)cc1Nc1cccc(-c2ccc(C(=O)N(C)Cc3ccc(N(C)C)nc3)nc2)c1OC [Compound 93] |
| 500 to 5000 | 0.01 to 10 | 5000 to 100000 |  |  |  | CNC(=O)c1nnc(NC(=O)C2CC2)cc1Nc1cccc(-c2cnc(C(=O)NCc3cccn(C)c3=O)cn2)c1OC [Compound 7] |
| 50 to 500 | 0.01 to 10 | 50 to 500 |  |  |  | CNC(=O)c1nnc(NC(=O)C2CC2)cc1Nc1cccc(-c2cnc(C(=O)N(C)Cc3cc(C#N)ccn3)cc2C2CC2)c1OC [Compound 153] |
|  |  |  | 500 to 5000 | 0.01 to 10 | 500 to 5000 | CNC(=O)c1nnc(NC(=O)C2CC2)cc1Nc1cccc(-c2cnn(C3CN(Cc4ncccc4O)C3)c2)c1OC [Compound 365] |
| 500 to 5000 | 0.01 to 10 | 500 to 5000 |  |  |  | CNC(=O)c1nnc(NC(=O)C2CC2)cc1Nc1cccc(-c2ccc(C(=O)N(C)Cc3nccs3)nc2)c1OC [Compound 58] |
|  |  |  | 5000 to 100000 | 10 to 50 | 5000 to 100000 | CNC(=O)c1nnc(NC(=O)C2CC2)cc1Nc1ccc(C)c(-c2ccc(C3CN(Cc4ccccn4)C3)nc2)c1OC [Compound 322] |
| 50 to 500 | 0.01 to 10 | 50 to 500 |  |  |  | CNC(=O)c1nnc(NC(=O)C2CC2)cc1Nc1cccc(-c2ccc(C(=O)N(C)Cc3c(C)nn(C)c3C)nc2)c1OC [Compound 168] |
| 50 to 500 | 0.01 to 10 | 50 to 500 |  |  |  | CNC(=O)c1nnc(NC(=O)C2CC2)cc1Nc1cc(F)cc(-c2ccc(C(=O)N(C)Cc3ccn(C)n3)nc2)c1OC [Compound 97] |
| 500 to 5000 | 10 to 50 | 5000 to 100000 |  |  |  | CNC(=O)c1nnc(NC(=O)C2CC2)cc1Nc1cccc(-c2ccc(C(=O)N(C)C[C@@H]3Cc4ccccc4CO3)nc2)c1OC (single isomer, unassigned) [Compound 138] |
| 50 to 500 | 0.01 to 10 | 50 to 500 |  |  |  | CNC(=O)c1nnc(NC(=O)C2CC2)cc1Nc1cccc(-c2cnn(C3CN(Cc4cccnn4)C3)c2)c1OC [Compound 109] |
|  |  |  | 500 to 5000 | 0.01 to 10 | 500 to 5000 | CNC(=O)c1nnc(NC(=O)C2CC2)cc1Nc1cccc(-c2cnn(C3CN([C@H](C)c4cccc(C#N)n4)C3)c2)c1OC (single isomer, unassigned) [Compound 283] |
|  |  |  | 50 to 500 | 0.01 to 10 | 50 to 500 | CNC(=O)c1nnc(NC(=O)C2CC2)cc1Nc1cccc(-c2cnn(C3CN(Cc4cccn5nccc45)C3)c2)c1OC [Compound 303] |
| 50 to 500 | 0.01 to 10 | 50 to 500 |  |  |  | CNC(=O)c1nnc(NC(=O)C2CC2)cc1Nc1cccc(-c2cnn(C3CN(Cc4cccc(C)n4)C3)c2)c1OC [Compound 106] |
| 50 to 500 | 0.01 to 10 | 500 to 5000 |  |  |  | CNC(=O)c1nnc(NC(=O)C2CC2)cc1Nc1cccc(-c2ccc(C(=O)N(C)Cc3cccc(OC(F)F)c3)nc2)c1OC [Compound 80] |
